Key:
HEK 293 cells = experiment: GCV sensitivity assay (luciferase) in transfected HEK 293 cells; type: cell-based, human; details: HEK 293 cells with TK, K2-5F and p53 vectors vs TK vector only or TK plus K2-5F vector
Text: FIG. 6 is a graphical representation of regulation of the response to GCV by p53-induced K2-5F. Cells (HEK 293) were co-transfected with the following plasmids: pRL-2MDR-TKp-TK and pFR-2p21-K2-5F (Δ); pRL-2MDR-TKp-TK, pFR-2p21-K2-5F, and pCMV-P53-Myc (∇); or pRL-2MDR-TKp-TK and pcK2-5F (◯). The total DNA amount was adjusted by pcDNA3.1A and/or PRL-TK. A ratio of 1:20:1 between pRL-2MDR-TKp-TK, pFR-2p21-K2-5F, and pCMV-P53-Myc was used. (□) represents cells transfected with both control vectors. After twenty-four hours, cells in each well were replated uniformly into six-well plates, and after another twenty four hours, GCV was administered in varying concentrations. Luciferase activities were measured after four days of treatment with GCV. Results are expressed as a percentage of the luciferase activities at 0 GCV.
(§1) Cells were seeded in twelve-well plates and transfected as described above. […] After four days of treatment, cells were lysed, and luciferase activities or β-galactosidase activities were measured according to the manufacturer's protocol (Promega Corp., Madison, Wis., United States of America). Cell viability was estimated by luciferase activity or β-galactosidase activity, with results expressed as a percentage of the activity in the absence of GCV. […]

HEK 293T cells = experiment: GCV sensitivity assay (luciferase or β-galactosidase activity as cell viability) in transfected HEK 293T cells; type: cell-based; details: Homo sapiens, 96 h, four days of GCV
Text: FIG. 4 is a graphical representation of regulation of the response to GCV by constitutively expressed K2-5F. Cells (HEK 293T) were co-transfected with equal amounts of the following plasmids: pRL-2MDR-TKp-TK and pcDNA3.1A (Δ), pRL-2MDR-TKp-TK and pcK2-5F (◯), or pcDNA3.1A and PRL-TK (□). All cells were also co-transfected with a luciferase-expressing plasmid (FIG. 4A) or a β-galactosidase-expressing plasmid (FIG. 4B) as a marker. After twenty-four hours, cells in each well were re-plated evenly into six-well plates, and in another twenty four hours, GCV was administered in varying concentrations. Luciferase (FIG. 4A) or β-galactosidase (FIG. 4B) activities were measured after four days of treatment by GCV. Results are expressed as a percentage of the enzymatic activities at 0 GCV for each set of plasmids.
as §1

Saos-2/p53+ cells = experiment: Colony-formation assay with GCV in Saos-2/p53-positive cells; type: cell-based, human; details: Saos 2/p53-positive cells co-transfected with pRL-2MDR-TKp-TK; especially at higher GCV concentrations
Text: (§2) FIGS. 9A and 9B depict regulation of the response to GCV by K2-5F induced by endogenous p53. Saos-2/p53-negative (FIG. 9A) and Saos-2/p53-positive (FIG. 9B) cells were co-transfected with plasmid pRL-2MDR-TKp-TK without (black bars) or with (gray bars) co-transfection of pFR-2p21-K2-5F. White bars represent cells transfected with empty vectors. All cells were also transfected with a β-galactosidase-expressing plasmid. After twenty-four hours, 600 cells were re-plated in 10-cm plates, and after another twenty-four hours, GCV was administered in varying concentrations. After ten days, surviving blue colonies larger than 50 cells were counted. Survival was expressed as a percentage of colonies formed at 0 GCV. […] The x-axis indicates the concentration of GCV in micromoles. The y-axis indicates the percentage of cell survival compared with cells not treated with GCV.
(§3) Cells were transfected with the plasmids indicated, along with a β-galactosidase-expressing plasmid to mark the transfected cells. […] After 10 days, surviving blue (β-galactosidase-positive) colonies larger than 50 cells were counted. Survival was expressed as a percentage of colonies formed at 0 GCV.
(§4) The pharmacological effect of K2-5F induced by endogenous p53 in stably transfected Saos-2 cells was investigated. […] The cells were then treated with GCV, and cell viability was evaluated with the use of a colony-formation assay. […]

Saos-2/p53- cells = experiment: Colony-formation assay with GCV in Saos-2/p53-negative cells; type: cell-based, human
Text: as §2, §3, §4

In the case of Nc1nc(O)c2ncn(COC(CO)CO)c2n1 [GCV, ganciclovir], the “right shift of the dose-response profile” value (HEK 293 cells) is reported as “approximately 1 log”, the IC50 (HEK 293T cells; HEK 293T cells transfected with both pRL-2MDR-TKp-TK and pcK2-5F) is reported as ~10 µM and the IC50 (HEK 293T cells; HEK 293T cells transfected with pRL-2MDR-TKp-TK alone) is reported as ~0.2 µM. The “effect of K2-5F-expressing plasmid on the dose-survival curve for GCV” value (Saos-2/p53+ cells) was “substantial protective effect”, the “effect of K2-5F-expressing plasmid on the dose-survival curve for GCV” value (Saos-2/p53- cells; Saos2/p53-negative cells co-transfected with pRL-2MDR-TKp-TK, colonies after 10 days) was “no effect” and the “concentration of GCV required to attain toxicity” value (Saos-2/p53- cells; Saos-2 cells compared with HEK 293 cells) was “higher concentration”.

— patent publication US20060019922A1, “Selective killing of cancerous cells” (The University of North Carolina, priority 2004, published 2006)
